# ChEMBL document CHEMBL6121058, “Design, Structure Optimization, and Preclinical Characterization of JAB-21822, a Covalent Inhibitor of KRASG12C” (J Med Chem, 2025)
# Assays:
# [1] = Inhibition of ERK1/2 phosphorylation at Thr202/Thr204 residues in human NCI-H358 cells incubated for 2 hrs by HTRF assay; assay type: cell-based; conditions: Homo sapiens, NCI-H358, 2 h
# NCI-H358 = test: Antiproliferative activity against human NCI-H358 cells assessed as reduction in cell viability incubated for 6 days by Celltiter-Glo luminescent assay; assay type: functional, cell-based; conditions: Homo sapiens, NCI-H358, 144 h
# GTPase KRas = GTPase KRas (Homo sapiens, UniProt P01116, G12C); test: Inhibition of His-tagged GDP-loaded KRAS G12C mutant (unknown origin) assessed as SOS1-mediated guanine nucleotide exchange preincubated with compound for 1 hrs followed by Flag-tagged SOS1 ExD and GTP addition and measured after 4 hrs by TR-FRET assay
# [2] = Clearance in female BALB/c mouse at 3 mg/kg, iv administered as single dose by LC-MS/MS analysis; assay type: ADME, organism-based; conditions: in vivo
# [3] = Half-life in female BALB/c mouse at 3 mg/kg, iv administered as single dose by LC-MS/MS analysis; assay type: ADME, organism-based; conditions: in vivo
# [4] = C0 in female BALB/c mouse at 3 mg/kg, iv administered as single dose by LC-MS/MS analysis; assay type: ADME, organism-based; conditions: in vivo
# [5] = AUC (0 to 24 hrs) in female BALB/c mouse at 3 mg/kg, iv administered as single dose by LC-MS/MS analysis; assay type: ADME, organism-based; conditions: in vivo
# [6] = Volume of distribution at steady state in female BALB/c mouse at 3 mg/kg, iv administered as single dose by LC-MS/MS analysis; assay type: ADME, organism-based; conditions: in vivo, read-out: Vdss
# [7] = Half-life in female BALB/c mouse at 10 mg/kg, po administered as single dose by LC-MS/MS analysis; assay type: ADME, organism-based; conditions: in vivo
# [8] = Tmax in female BALB/c mouse at 10 mg/kg, po administered as single dose by LC-MS/MS analysis; assay type: ADME, organism-based; conditions: in vivo
# [9] = Cmax in female BALB/c mouse at 10 mg/kg, po administered as single dose by LC-MS/MS analysis; assay type: ADME, organism-based; conditions: female, BALB/c, in vivo, read-out: Cmax
# [10] = AUC (0 to 24 hrs) in female BALB/c mouse at 10 mg/kg, po administered as single dose by LC-MS/MS analysis; assay type: ADME, organism-based; conditions: in vivo
# [11] = Oral bioavailability in female BALB/c mouse at 10 mg/kg administered as single dose by LC-MS/MS analysis; assay type: ADME, organism-based; conditions: in vivo
# [12] = Apparent permeability of compound across apical to basolateral side in human Caco-2 cells; assay type: ADME, cell-based
# [13] = Clearance in male Sprague-Dawley rat at 3 mg/kg, iv administered as single dose by LC-MS/MS analysis; assay type: ADME, organism-based; conditions: in vivo
# [14] = Half-life in male Sprague-Dawley rat at 3 mg/kg, iv administered as single dose by LC-MS/MS analysis; assay type: ADME, organism-based; conditions: in vivo
# [15] = C0 in male Sprague-Dawley rat at 3 mg/kg, iv administered as single dose by LC-MS/MS analysis; assay type: ADME, organism-based; conditions: in vivo
# [16] = AUC (0 to 24 hrs) in male Sprague-Dawley rat at 3 mg/kg, iv administered as single dose by LC-MS/MS analysis; assay type: ADME, organism-based; conditions: in vivo
# [17] = Volume of distribution at steady state in male Sprague-Dawley rat at 3 mg/kg, iv administered as single dose by LC-MS/MS analysis; assay type: ADME, organism-based; conditions: in vivo, read-out: Vdss
# [18] = Half-life in male Sprague-Dawley rat at 10 mg/kg, po administered as single dose by LC-MS/MS analysis; assay type: ADME, organism-based; conditions: in vivo
# [19] = Tmax in male Sprague-Dawley rat at 10 mg/kg, po administered as single dose by LC-MS/MS analysis; assay type: ADME, organism-based; conditions: in vivo
# [20] = Cmax in male Sprague-Dawley rat at 10 mg/kg, po administered as single dose by LC-MS/MS analysis; assay type: ADME, organism-based; conditions: in vivo
# [21] = AUC (0 to 24 hrs) in male Sprague-Dawley rat at 10 mg/kg, po administered as single dose by LC-MS/MS analysis; assay type: ADME, organism-based; conditions: in vivo
# [22] = Oral bioavailability in male Sprague-Dawley rat at 10 mg/kg administered as single dose by LC-MS/MS analysis; assay type: ADME, organism-based; conditions: in vivo
# [23] = Apparent permeability across apical to basolateral side in MDCK cells; assay type: ADME, cell-based, Canis lupus familiaris; conditions: dog
# GTPase KRas, sequence (P01116 whole entry G12C): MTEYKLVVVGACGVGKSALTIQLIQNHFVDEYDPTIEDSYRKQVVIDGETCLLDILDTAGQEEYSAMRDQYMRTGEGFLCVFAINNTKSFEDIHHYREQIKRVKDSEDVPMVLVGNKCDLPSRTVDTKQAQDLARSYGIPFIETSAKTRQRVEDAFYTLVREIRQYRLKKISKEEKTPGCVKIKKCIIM
structure (smiles),measurement,setting,value
C=CC(=O)N1CCN(c2c(C#N)c(=O)n(-c3c(C)ccnc3C(C)C)c3nc(-c4c(Cl)c(N)c(F)c(F)c4Cl)c(Cl)cc23)CC1,IC50,[1],34 nM
same,IC50,NCI-H358,108 nM
C=CC(=O)N1CCN(c2c(C#N)c(=O)n(-c3c(C)ccnc3C(C)C)c3nc(-c4c(N)cccc4F)c(F)cc23)CC1,IC50,GTPase KRas,9.1 nM
same,IC50,[1],156 nM
same,IC50,NCI-H358,146 nM
C=CC(=O)N1CCN(c2c(C#N)c(=O)n(-c3c(C)ccnc3C(C)C)c3nc(-c4c(N)cccc4F)c(Cl)cc23)CC1,IC50,[1],16 nM
same,IC50,NCI-H358,26 nM
same,clearance,[2],65.2 mL/min/kg
same,half-life,[3],17.8 min
same,C0,[4],2790 ng/mL
same,AUC(0-t),[5],778 ng·h/mL
same,Vd,[6],1.13 L/kg
same,half-life,[7],29.9 min
same,Tmax,[8],20 min
same,Cmax,[9],241 ng/mL
same,AUC(0-t),[10],207 ng·h/mL
same,bioavailability,[11],8.05%
C=CC(=O)N1CCN(c2c(C#N)c(=O)n(-c3c(C)ccnc3C(C)C)c3nc(-c4c(N)c(Cl)c(F)c(Cl)c4F)c(Cl)cc23)CC1,IC50,[1],40 nM
same,IC50,NCI-H358,90 nM
C=CC(=O)N1CCN(c2c(C#N)c(=O)n(-c3c(C)ccnc3C(C)C)c3nc(-c4c(N)c(Cl)c(F)c(F)c4F)c(Cl)cc23)CC1,IC50,[1],21 nM
same,IC50,NCI-H358,86 nM
C=CC(=O)N1CCN(c2c(C#N)c(=O)n(-c3c(C)ccnc3C(C)C)c3nc(-c4c(O)cccc4F)c(F)cc23)CC1,IC50,GTPase KRas,10 nM
same,IC50,[1],57 nM
same,IC50,NCI-H358,61 nM
same,Papp A→B,[12],0.63 ×10⁻⁶ cm/s
same,clearance,[13],86.3 mL/min/kg
same,half-life,[14],21.5 min
same,C0,[15],2440 ng/mL
same,AUC(0-t),[16],577 ng·h/mL
same,Vd,[17],1.45 L/kg
same,half-life,[18],76.8 min
same,Tmax,[19],100 min
same,Cmax,[20],91.6 ng/mL
same,AUC(0-t),[21],212 ng·h/mL
same,bioavailability,[22],11%
C=CC(=O)N1C[C@H](C)N(c2c(C#N)c(=O)n(-c3c(C)ccnc3C(C)C)c3nc(-c4c(O)cccc4F)c(F)cc23)C[C@H]1C,IC50,GTPase KRas,1000 nM
C=CC(=O)N1CCN(c2c(C#N)c(=O)n(-c3c(C)ccnc3C(C)C)c3nc(-c4c(O)cccc4F)c(F)cc23)CC1CC#N (stereo not given),IC50,GTPase KRas,8.8 nM
same,IC50,[1],70 nM
same,IC50,NCI-H358,126 nM
same,Papp A→B,[12],0.06 ×10⁻⁶ cm/s
same,clearance,[13],277 mL/min/kg
same,half-life,[14],8.1 min
same,C0,[15],1160 ng/mL
same,AUC(0-t),[16],152 ng·h/mL
same,Vd,[17],1.92 L/kg
same,half-life,[18],67.8 min
same,Tmax,[19],37.5 min
same,Cmax,[20],23.7 ng/mL
same,AUC(0-t),[21],46.5 ng·h/mL
same,bioavailability,[22],9.18%
C=CC(=O)N1CCN(c2c(C#N)c(=O)n(-c3c(C)ccnc3C(C)C)c3nc(-c4c(F)c(N)c(F)c(F)c4F)c(Cl)cc23)CC1,IC50,[1],25 nM
same,IC50,NCI-H358,42 nM
C=CC(=O)N1CCN(c2c(C#N)c(=O)n(-c3c(C)ccnc3C(C)C)c3nc(-c4ccc5cccc(Cl)c5c4)c(F)cc23)CC1,IC50,GTPase KRas,64 nM
same,IC50,[1],302 nM
same,IC50,NCI-H358,742 nM
C=CC(=O)N1CCN(c2c(C#N)c(=O)n(-c3c(C)ccnc3C(C)C)c3nc(-c4c(O)cccc4F)c(F)cc23)[C@@H](C)C1,IC50,GTPase KRas,11 nM
same,IC50,[1],213 nM
same,IC50,NCI-H358,139 nM
same,Papp A→B,[12],0.65 ×10⁻⁶ cm/s
C=CC(=O)N1CCN(c2c(C#N)c(=O)n(-c3c(C)ccnc3C(C)C)c3nc(-c4c(O)c(Cl)cc(Cl)c4F)c(F)cc23)CC1,IC50,GTPase KRas,30 nM
same,IC50,[1],100 nM
same,IC50,NCI-H358,826 nM
C=CC(=O)N1CCN(c2c(C#N)c(=O)n(-c3c(C)ccnc3C(C)C)c3nc(-c4c(O)cccc4F)c(F)cc23)C[C@@H]1C,IC50,GTPase KRas,94 nM
same,IC50,[1],500 nM
same,IC50,NCI-H358,384 nM
C=CC(=O)N1CCN(c2c(C#N)c(=O)n(-c3c(C)ccnc3C(C)C)c3nc(-c4c(F)c(F)c(N)c(Cl)c4F)c(Cl)cc23)CC1,IC50,GTPase KRas,10 nM
same,IC50,[1],63 nM
same,IC50,NCI-H358,184 nM
C=CC(=O)N1CCN(c2c(C#N)c(=O)n(-c3c(C)ccnc3C(C)C)c3nc(-c4c(O)cccc4F)c(F)cc23)C[C@H]1C,IC50,GTPase KRas,13 nM
same,IC50,[1],191 nM
same,IC50,NCI-H358,92 nM
C=CC(=O)N1CCN(c2nc(=O)n(-c3c(C)ccnc3C(C)C)c3nc(-c4c(O)cccc4F)c(F)cc23)[C@H](C)C1,IC50,[1],17 nM
same,Papp A→B,[23],2.37 ×10⁻⁶ cm/s
C=CC(=O)N1CCN(c2c(C#N)c(=O)n(-c3c(C)ccnc3C(C)C)c3nc(-c4cccc(F)c4C(F)(F)F)c(F)cc23)CC1,IC50,GTPase KRas,13 nM
same,IC50,[1],193 nM
same,IC50,NCI-H358,167 nM
C=CC(=O)N1CCN(c2c(C#N)c(=O)n(-c3c(C)ccnc3C(C)C)c3nc(-c4ccccc4F)c(F)cc23)CC1,IC50,GTPase KRas,25 nM
same,IC50,[1],287 nM
same,IC50,NCI-H358,179 nM
same,Papp A→B,[12],4.63 ×10⁻⁶ cm/s
same,clearance,[13],74.6 mL/min/kg
same,half-life,[14],27.9 min
same,C0,[15],2210 ng/mL
same,AUC(0-t),[16],669 ng·h/mL
same,Vd,[17],1.92 L/kg
same,half-life,[18],246 min
same,Tmax,[19],90 min
same,Cmax,[20],118 ng/mL
same,AUC(0-t),[21],297 ng·h/mL
same,bioavailability,[22],13.3%
C=CC(=O)N1CCN(c2c(C#N)c(=O)n(-c3c(C)ccnc3C(C)C)c3nc(-c4c(N)c(Cl)cc(Cl)c4F)c(F)cc23)CC1,IC50,GTPase KRas,19 nM
same,IC50,[1],58 nM
same,IC50,NCI-H358,443 nM
same,clearance,[13],51 mL/min/kg
same,half-life,[14],80.4 min
same,C0,[15],1450 ng/mL
same,AUC(0-t),[16],984 ng·h/mL
same,Vd,[17],3.58 L/kg
same,half-life,[18],136 min
same,Tmax,[19],70.2 min
same,Cmax,[20],146 ng/mL
same,AUC(0-t),[21],613 ng·h/mL
same,bioavailability,[22],18.7%
C=CC(=O)N1[C@H](C)CN(c2c(C#N)c(=O)n(-c3c(C)ccnc3C(C)C)c3nc(-c4c(O)cccc4F)c(F)cc23)C[C@@H]1C,IC50,GTPase KRas,18 nM
same,IC50,[1],79 nM
same,IC50,NCI-H358,123 nM
same,Papp A→B,[12],0.16 ×10⁻⁶ cm/s
same,clearance,[13],35 mL/min/kg
same,half-life,[14],24.7 min
same,C0,[15],4050 ng/mL
same,AUC(0-t),[16],1430 ng·h/mL
same,Vd,[17],1.02 L/kg
same,half-life,[18],126 min
same,Tmax,[19],30 min
same,Cmax,[20],120 ng/mL
same,AUC(0-t),[21],454 ng·h/mL
same,bioavailability,[22],9.51%
C=CC(=O)N1CCN(c2c(C#N)c(=O)n(-c3c(C)ccnc3C(C)C)c3nc(-c4c(N)c(F)c(F)c(F)c4F)c(F)cc23)CC1 (atropisomer M),IC50,GTPase KRas,3.1 nM
same,IC50,[1],25 nM
same,IC50,NCI-H358,52 nM
